Results published in patent publication US8415469B2, “Compounds and methods for kinase modulation, and indications therefor” (Plexxikon Inc., priority 2005, dated 2013).

Tests used:
Format in all cases: biochemical
Kit = biological target: T1, Kit (Homo sapiens, UniProt P10721); test: AlphaScreen kinase assay, Kit; conditions: read-out: IC50, activity toward kinase Kit
T1 construct: P1332.N6 BI PTP KIT M552-K948-X COD; His6 (N); made in house; host or cells: E. coli (PTP1B co-expressed)

Jnk3 = biological target: T2, Jnk3 (Homo sapiens, UniProt P53779); test: AlphaScreen kinase assay, Jnk3; conditions: read-out: IC50, activity toward kinase Jnk3
T2 construct: purchased Upstate Biotechnology
T2 sequence (P53779 whole entry): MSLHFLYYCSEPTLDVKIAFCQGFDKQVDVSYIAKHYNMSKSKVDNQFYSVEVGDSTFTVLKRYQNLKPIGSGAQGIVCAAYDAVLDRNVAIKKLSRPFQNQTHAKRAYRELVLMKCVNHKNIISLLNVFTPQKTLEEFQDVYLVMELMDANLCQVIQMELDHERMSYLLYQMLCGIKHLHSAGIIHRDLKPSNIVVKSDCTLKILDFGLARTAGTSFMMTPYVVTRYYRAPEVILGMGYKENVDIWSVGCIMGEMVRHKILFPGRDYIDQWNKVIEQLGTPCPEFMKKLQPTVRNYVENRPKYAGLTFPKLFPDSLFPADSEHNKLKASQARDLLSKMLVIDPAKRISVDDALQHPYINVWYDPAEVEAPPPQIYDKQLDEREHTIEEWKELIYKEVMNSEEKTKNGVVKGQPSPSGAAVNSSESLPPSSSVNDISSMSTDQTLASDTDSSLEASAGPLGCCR

Ret = biological target: T3, Ret (Homo sapiens, UniProt P07949); test: AlphaScreen kinase assay, Ret; conditions: read-out: IC50, activity toward kinase Ret
T3 construct: P1378.pET-SF BI-PTP RET H661-R1012 HIS; made in house
T3 sequence (P07949 with tags, fused parts or gaps): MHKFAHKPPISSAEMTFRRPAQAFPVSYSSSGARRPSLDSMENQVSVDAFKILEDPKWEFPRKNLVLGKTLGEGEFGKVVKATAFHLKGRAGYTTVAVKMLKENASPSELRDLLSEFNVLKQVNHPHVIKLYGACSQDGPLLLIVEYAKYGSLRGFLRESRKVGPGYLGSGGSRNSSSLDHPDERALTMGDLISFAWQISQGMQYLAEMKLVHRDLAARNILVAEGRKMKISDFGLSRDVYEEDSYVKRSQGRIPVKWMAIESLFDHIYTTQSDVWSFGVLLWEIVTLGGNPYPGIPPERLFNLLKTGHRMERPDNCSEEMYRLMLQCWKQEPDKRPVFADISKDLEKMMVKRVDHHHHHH

Kdr = biological target: T4, Kdr (Homo sapiens, UniProt P35968); test: Z'-Lyte FRET kinase assay (Invitrogen), Kdr; conditions: read-out: IC50, activity toward kinase Kdr
T4 construct: purchased Invitrogen (assay run by Invitrogen)
T4 sequence (P35968 20-1356): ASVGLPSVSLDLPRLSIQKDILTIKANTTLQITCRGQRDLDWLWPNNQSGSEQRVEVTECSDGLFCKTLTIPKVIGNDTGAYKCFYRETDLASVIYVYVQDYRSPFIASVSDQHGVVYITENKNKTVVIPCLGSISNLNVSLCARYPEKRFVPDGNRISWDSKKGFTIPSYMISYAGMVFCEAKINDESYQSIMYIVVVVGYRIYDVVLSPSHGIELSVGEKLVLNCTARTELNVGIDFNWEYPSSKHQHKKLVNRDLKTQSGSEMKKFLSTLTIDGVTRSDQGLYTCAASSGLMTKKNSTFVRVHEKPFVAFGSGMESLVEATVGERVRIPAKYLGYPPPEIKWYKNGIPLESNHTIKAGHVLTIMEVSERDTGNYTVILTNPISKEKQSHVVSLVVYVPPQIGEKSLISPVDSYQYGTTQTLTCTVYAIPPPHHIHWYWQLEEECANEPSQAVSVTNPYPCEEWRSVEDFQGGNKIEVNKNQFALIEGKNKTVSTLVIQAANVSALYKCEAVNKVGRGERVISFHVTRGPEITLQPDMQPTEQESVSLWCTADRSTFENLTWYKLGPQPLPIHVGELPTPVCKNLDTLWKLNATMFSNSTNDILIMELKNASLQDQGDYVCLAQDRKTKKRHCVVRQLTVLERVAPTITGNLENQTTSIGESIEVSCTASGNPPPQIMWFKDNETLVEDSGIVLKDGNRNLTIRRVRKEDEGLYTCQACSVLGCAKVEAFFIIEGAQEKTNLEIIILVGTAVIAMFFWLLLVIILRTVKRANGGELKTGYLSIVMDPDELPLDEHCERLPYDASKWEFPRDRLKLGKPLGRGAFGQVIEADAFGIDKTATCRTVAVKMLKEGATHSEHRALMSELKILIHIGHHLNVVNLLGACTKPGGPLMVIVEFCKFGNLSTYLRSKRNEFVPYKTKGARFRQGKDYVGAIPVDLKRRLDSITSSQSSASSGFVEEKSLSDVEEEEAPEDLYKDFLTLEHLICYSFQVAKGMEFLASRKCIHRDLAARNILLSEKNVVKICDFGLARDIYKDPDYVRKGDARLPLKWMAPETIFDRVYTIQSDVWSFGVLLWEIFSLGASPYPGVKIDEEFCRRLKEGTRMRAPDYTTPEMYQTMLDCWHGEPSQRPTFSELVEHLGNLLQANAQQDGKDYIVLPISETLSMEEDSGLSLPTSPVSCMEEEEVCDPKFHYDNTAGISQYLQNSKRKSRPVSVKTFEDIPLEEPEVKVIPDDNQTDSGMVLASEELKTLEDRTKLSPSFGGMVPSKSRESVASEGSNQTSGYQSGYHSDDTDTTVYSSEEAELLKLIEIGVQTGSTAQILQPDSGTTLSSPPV
Text: For example, direct radiometric, indirect FRET or AlphaScreen assays may be used to assess the level of phosphorylation of a substrate in the presence of test compounds in order to determine the inhibitory affect of the compound on the kinase. […] For these assays, compounds of the invention were screened by Invitrogen using Z′-Lyte™ kinase assay.
Briefly, the Invitrogen kinase assay involves use of a specific peptide substrate optimized for each kinase, containing a fluorophore at each end that make up the FRET pair. The peptide sensitivity to proteolytic cleavage depends on phosphorylation of the peptide. Non-phosphorylated peptide is cleaved by a protease while peptide phosphorylated by the kinase is not cleaved. Cleavage of the peptide disrupts the FRET between the donor (coumarin) and acceptor (fluorescein) fluorophores, resulting in an increase in the ratio of donor emission to acceptor emission. The emission ratio of coumarin to fluorescein is used to assess the reaction progress. […] Thus, the assay involves a kinase reaction in the presence of varying concentrations of a given compound, a development reaction with site specific protease, and detection of the fluorescent emission ratio of coumarin and fluorscein. […] Reaction conditions for each kinase are determined to provide optimal reaction times, incubation temperature, kinase and ATP concentrations. Test samples are made up in 1× kinase buffer (50 mM HEPES pH 7.5, 50 mM MgCl2, 5 mM EGTA, 0.05% BRIJ-35) and compound at desired concentration prepared in DMSO such that the final DMSO is 1%. […] All kinase except for MAP2K1 were at 10 μM ATP in the kinase reaction, while MAP2K1 was at 100 μM. Samples are mixed and the kinase reaction is incubated 1 hour at room temperature, after which 5 μl of development solution is added and mixed. After incubation for another 1 hour at room temperature, 5 μl of stop reagent is added to each sample and mixed. The fluorescence signals are measured to determine the emission ratio.

Flt4 = biological target: T5, Flt4 (Homo sapiens, UniProt P35916); test: AlphaScreen kinase assay, Flt4; conditions: read-out: IC50, activity toward kinase Flt4
T5 construct: purchased ProQinase GmbH (Freiburg, Germany)
Text: AlphaScreen assay was used to screen additional kinases. The assay is similarly dependent on the phosphorylation of a peptide substrate. In this assay, an antibody that recognizes phosphorylated substrate is bound to an acceptor bead. The peptide substrate is attached to biotin, which binds to a donor head that contains streptavidin. Thus phosphorylated substrate is bound by antibody and streptavidin, bringing the donor and acceptor heads into close proximity when kinase is not inhibited. The donor produces singlet oxygen which results in emission from the acceptor when they are in close proximity. Conversely, when kinase is inhibited, the donor and acceptor beads are not associated and the emission from the acceptor is reduced.
AlphaScreen assays were done using compounds dissolved in DMSO to a concentration of 20 mM. The compounds were diluted accordingly to the desired final concentrations in each sample well, using 1:3 serial dilution for a total of 8 concentration points.

Stk6 = biological target: T6, Stk6 (Homo sapiens, UniProt O14965); test: Z'-Lyte FRET kinase assay (Invitrogen), Stk6; conditions: read-out: IC50, activity toward kinase Stk6
T6 construct: purchased Invitrogen (Carlsbad, Calif.), screening service
T6 sequence (O14965 1-403): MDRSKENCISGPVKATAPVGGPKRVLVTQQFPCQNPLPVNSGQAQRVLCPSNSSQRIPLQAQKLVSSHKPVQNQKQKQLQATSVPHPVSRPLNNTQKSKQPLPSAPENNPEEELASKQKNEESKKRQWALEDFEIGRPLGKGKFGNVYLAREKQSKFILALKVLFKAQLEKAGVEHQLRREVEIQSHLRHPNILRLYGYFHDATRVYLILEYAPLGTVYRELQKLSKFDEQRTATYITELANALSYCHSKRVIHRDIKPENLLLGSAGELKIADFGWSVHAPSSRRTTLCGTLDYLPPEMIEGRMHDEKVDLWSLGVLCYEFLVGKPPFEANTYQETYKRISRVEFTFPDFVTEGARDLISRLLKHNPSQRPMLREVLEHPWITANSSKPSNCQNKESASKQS

FGFR1 = biological target: T7, FGFR1 (Homo sapiens, UniProt P11362, C488A/C584S); test: AlphaScreen kinase assay, FGFR1; conditions: read-out: IC50, activity toward kinase FGFR
T7 construct: P1351.pET N6 BI-PTP FGFR A458-E765-X C488A, C584S; made in house; host or cells: E. coli (PTP1B co-expressed)
T7 sequence (P11362 458-765 C488A/C584S): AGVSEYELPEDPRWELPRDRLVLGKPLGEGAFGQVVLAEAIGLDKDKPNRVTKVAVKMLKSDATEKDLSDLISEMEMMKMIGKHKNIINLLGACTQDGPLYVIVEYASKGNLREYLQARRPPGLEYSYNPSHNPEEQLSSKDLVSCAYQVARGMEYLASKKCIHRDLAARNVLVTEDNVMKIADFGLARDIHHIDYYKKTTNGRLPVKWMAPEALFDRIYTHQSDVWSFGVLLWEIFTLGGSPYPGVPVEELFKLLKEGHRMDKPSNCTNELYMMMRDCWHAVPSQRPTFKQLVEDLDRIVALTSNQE

Flt1 = biological target: T8, Flt1 (Homo sapiens, UniProt P17948); test: AlphaScreen kinase assay, Flt1; conditions: read-out: IC50, activity toward kinase Flt1
T8 construct: P1826.pETN6 BI-PTP FLT1 M799-D1165-X WT; His6 (N); made in house; host or cells: E. coli (PTP1B co-expressed)
T8 sequence (P17948 with tags, fused parts or gaps): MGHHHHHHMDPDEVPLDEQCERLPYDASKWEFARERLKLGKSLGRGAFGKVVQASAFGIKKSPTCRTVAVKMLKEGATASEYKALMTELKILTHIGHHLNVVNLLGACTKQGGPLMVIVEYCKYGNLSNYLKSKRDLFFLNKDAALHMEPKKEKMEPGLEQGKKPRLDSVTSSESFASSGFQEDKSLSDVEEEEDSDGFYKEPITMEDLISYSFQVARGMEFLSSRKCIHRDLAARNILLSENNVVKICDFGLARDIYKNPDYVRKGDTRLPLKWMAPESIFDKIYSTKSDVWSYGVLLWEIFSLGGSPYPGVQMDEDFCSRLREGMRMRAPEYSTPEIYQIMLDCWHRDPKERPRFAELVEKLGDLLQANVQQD

B-Raf V600E = biological target: T9, B-Raf V600E (Homo sapiens, UniProt P15056, V600E); test: AlphaScreen kinase assay, B-Raf V600E; conditions: read-out: IC50, activity toward kinase B-Raf V600E
T9 construct: P4254. pFastBacBD-CDC37 BRAF D437-K722-X, V600E; His6 with pFastBac HT leader (TEV site) (N); made in house; host or cells: Sf9 (baculovirus; chaperone CDC37 co-expressed)
T9 sequence (P15056 with tags, fused parts or gaps V600E): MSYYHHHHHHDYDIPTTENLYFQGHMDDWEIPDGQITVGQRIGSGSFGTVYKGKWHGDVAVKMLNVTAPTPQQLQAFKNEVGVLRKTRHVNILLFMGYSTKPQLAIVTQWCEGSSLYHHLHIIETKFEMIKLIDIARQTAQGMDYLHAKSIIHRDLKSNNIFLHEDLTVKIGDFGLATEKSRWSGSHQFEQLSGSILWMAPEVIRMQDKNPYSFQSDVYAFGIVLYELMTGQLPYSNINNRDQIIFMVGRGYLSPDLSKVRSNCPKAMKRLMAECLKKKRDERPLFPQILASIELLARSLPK

Fak = biological target: T10, Fak (Homo sapiens, UniProt Q05397); test: AlphaScreen kinase assay, Fak; conditions: read-out: IC50, activity toward kinase Fak
T10 construct: P1358.pFastBacHtb FAK S411-Q686-X; His6 with pFastBacHTb leader (TEV site) (N); made in house; host or cells: Sf9 (baculovirus)

Fms = biological target: T11, Fms (Homo sapiens, UniProt P07333); test: AlphaScreen kinase assay, Fms; conditions: read-out: IC50, activity toward kinase Fms
T11 construct: purchased Upstate Biotechnology
T11 sequence (P07333 20-972): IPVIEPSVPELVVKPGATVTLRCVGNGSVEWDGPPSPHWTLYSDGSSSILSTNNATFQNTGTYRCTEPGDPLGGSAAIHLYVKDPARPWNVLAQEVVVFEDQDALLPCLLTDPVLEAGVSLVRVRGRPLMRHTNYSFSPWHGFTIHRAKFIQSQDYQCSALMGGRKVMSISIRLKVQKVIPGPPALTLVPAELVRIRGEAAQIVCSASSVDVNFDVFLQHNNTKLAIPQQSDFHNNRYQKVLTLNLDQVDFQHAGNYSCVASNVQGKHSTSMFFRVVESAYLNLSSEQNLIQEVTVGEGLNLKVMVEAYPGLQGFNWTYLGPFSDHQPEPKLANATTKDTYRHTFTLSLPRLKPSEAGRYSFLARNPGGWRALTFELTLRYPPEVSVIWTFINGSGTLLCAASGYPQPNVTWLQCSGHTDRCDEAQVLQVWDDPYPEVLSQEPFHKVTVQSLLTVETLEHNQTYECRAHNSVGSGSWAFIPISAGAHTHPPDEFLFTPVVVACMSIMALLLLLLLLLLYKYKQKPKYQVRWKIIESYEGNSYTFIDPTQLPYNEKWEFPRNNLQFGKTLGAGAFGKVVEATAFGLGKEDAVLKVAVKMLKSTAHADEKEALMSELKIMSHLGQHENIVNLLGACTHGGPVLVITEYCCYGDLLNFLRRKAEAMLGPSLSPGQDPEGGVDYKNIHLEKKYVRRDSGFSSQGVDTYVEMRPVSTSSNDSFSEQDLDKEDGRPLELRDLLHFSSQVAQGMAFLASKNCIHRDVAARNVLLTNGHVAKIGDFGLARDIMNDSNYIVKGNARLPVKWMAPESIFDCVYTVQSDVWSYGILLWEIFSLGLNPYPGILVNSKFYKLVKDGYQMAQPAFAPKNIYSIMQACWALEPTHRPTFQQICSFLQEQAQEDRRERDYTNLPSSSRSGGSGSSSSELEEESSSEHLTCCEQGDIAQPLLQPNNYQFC

c-Raf-1 = biological target: T12, c-Raf-1 (Homo sapiens, UniProt P04049); test: AlphaScreen kinase assay, c-Raf-1; conditions: read-out: IC50, activity toward kinase c-Raf-1
T12 construct: purchased Upstate Biotechnology
T12 sequence (P04049 whole entry): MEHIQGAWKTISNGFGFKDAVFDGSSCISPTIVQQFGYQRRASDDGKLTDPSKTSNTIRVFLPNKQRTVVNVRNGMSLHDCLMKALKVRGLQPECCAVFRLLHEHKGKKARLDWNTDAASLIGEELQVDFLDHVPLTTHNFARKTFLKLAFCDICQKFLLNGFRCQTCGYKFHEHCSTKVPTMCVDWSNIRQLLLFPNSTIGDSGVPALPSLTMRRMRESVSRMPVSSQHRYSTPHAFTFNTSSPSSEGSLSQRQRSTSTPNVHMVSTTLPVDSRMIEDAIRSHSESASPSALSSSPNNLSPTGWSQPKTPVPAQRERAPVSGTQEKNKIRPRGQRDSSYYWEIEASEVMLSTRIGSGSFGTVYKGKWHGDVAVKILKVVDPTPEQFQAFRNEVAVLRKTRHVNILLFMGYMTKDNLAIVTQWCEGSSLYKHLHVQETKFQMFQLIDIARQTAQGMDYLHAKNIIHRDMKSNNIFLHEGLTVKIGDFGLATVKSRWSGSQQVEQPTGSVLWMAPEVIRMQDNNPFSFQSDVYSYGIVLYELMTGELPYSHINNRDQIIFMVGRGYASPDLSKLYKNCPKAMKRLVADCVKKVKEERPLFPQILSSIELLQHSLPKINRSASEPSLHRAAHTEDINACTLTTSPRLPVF

B-Raf = biological target: T13, B-Raf (Homo sapiens, UniProt P15056); test: AlphaScreen kinase assay, B-Raf; conditions: read-out: IC50, activity toward kinase B-Raf
T13 construct: purchased Upstate Biotechnology

Btk = biological target: T14, Btk (Homo sapiens, UniProt Q06187); test: Z'-Lyte FRET kinase assay (Invitrogen), Btk; conditions: read-out: IC50, activity toward kinase Btk
T14 construct: purchased Invitrogen (assay run by Invitrogen)

Jnk1 = biological target: T15, Jnk1 (Homo sapiens, UniProt P45983); test: AlphaScreen kinase assay, Jnk1; conditions: read-out: IC50, activity toward kinase Jnk1
T15 construct: purchased Upstate Biotechnology

Src = biological target: T16, Src (Homo sapiens, UniProt P12931); test: AlphaScreen kinase assay, Src; conditions: read-out: IC50, activity toward kinase Src
T16 construct: P1144. pET-N6 BI-PTP SRC V86-L536-X; made in house
T16 sequence (P12931 with tags, fused parts or gaps): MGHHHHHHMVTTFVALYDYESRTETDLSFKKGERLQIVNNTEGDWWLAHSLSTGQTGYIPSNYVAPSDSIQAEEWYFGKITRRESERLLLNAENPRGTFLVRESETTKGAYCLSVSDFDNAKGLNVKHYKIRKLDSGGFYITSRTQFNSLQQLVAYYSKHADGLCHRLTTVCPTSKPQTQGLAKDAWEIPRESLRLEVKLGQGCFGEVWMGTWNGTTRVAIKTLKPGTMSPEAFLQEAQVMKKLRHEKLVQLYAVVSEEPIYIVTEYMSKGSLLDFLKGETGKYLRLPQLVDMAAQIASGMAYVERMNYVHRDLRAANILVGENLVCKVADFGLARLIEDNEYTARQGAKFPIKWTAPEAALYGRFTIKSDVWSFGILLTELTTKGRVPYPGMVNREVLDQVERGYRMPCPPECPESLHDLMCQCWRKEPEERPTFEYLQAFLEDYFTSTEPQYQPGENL
Experimental: AlphaScreen assays were done using compounds dissolved in DMSO to a concentration of 20 mM. The compounds were diluted accordingly to the desired final concentrations in each sample well, using 1:3 serial dilution for a total of 8 concentration points. Plates were prepared such that each kinase reaction is 20 μl in 1× kinase buffer, 5% DMSO and 10 μM ATP. After incubation of the kinase reaction for 1 hour at room temperature, 5 μl of donor beads in stop buffer (50 mM EDTA in 1× kinase buffer) was added, the sample was mixed and incubated for 20 minutes at room temperature before adding 5 μl of acceptor beads in stop buffer. The samples were incubated for 60 minutes at room temperature and the signal per well was read on AlphaQuest reader.

Measured: IC50

T1 sequence (P10721 with tags, fused parts or gaps): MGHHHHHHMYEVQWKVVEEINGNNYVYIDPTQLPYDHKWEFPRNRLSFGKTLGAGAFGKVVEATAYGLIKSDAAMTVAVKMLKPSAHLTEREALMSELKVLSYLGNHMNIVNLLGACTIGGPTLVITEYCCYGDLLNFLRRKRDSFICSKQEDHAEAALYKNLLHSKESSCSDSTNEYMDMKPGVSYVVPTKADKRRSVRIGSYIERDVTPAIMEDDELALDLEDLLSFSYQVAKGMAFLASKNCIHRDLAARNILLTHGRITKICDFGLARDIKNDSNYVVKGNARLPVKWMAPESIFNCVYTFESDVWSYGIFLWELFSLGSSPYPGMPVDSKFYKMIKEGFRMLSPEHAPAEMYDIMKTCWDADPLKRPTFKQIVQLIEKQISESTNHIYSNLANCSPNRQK

COc1cccc(C(=O)c2c[nH]c3ncc(-c4cccc(C(N)=O)c4)cc23)c1 [Compound P-0190]
≤ 10 µM: Kit | Jnk3 | Ret | Kdr | Flt4

COc1cccc(C(=O)c2c[nH]c3ncc(-c4cccs4)cc23)c1F [Compound P-0206]
≤ 10 µM: Kit | Ret | Kdr | Stk6 | FGFR1 | Flt4 | Flt1

COc1cccc(C(=O)c2c[nH]c3ncc(-c4ccsc4)cc23)c1 [Compound P-0211]
≤ 10 µM: Kit | B-Raf V600E | Fak | Jnk3 | Ret | FGFR1 | Flt4 | Fms | Flt1

COc1cccc(C(=O)c2c[nH]c3ncc(Br)cc23)c1F [Compound P-0265, (5-bromo-1H-pyrrolo[2,3-b]pyridin-3-yl)-(2-fluoro-3-methoxy-phenyl)-methanone]
≤ 10 µM: Kit | B-Raf V600E | Ret | c-Raf-1 | FGFR1 | B-Raf | Flt4

COc1cccc(Cc2c[nH]c3ncc(-c4cc5ccccc5[nH]4)cc23)c1 [Compound P-0335]
≤ 10 µM: FGFR1 | Flt4

O=C(c1ccc(F)cc1F)c1c[nH]c2nccc(-c3cc(F)cc(F)c3)c12 [Compound P-0352]
≤ 10 µM: Kit | B-Raf V600E | Ret | Flt4

O=C(c1ccc(Cl)cc1)c1c[nH]c2ncc(-c3cccnc3)cc12 [Compound P-0418]
≤ 10 µM: Kit | B-Raf V600E | Ret | Kdr | c-Raf-1 | FGFR1 | Btk | Flt4 | Fms

O=C(c1ccccc1)c1c[nH]c2nccc(-c3cc(F)cc(F)c3)c12 [Compound P-0452]
≤ 10 µM: Ret | FGFR1 | Flt4

O=S(=O)(c1ccccc1)c1c[nH]c2ncccc12 [Compound P-0544]
≤ 10 µM: Flt4

COc1ccc(C(=O)c2c[nH]c3ncc(Br)cc23)cc1 [Compound P-0617]
≤ 10 µM: Kit | Flt4

CC(=O)Nc1cccc(-c2cnc3[nH]cc(C(=O)c4cc(C)on4)c3c2)c1 [Compound P-0632]
≤ 10 µM: Kit | Jnk3 | Ret | Kdr | FGFR1 | Flt4 | Flt1

CC(=O)Nc1cccc(-c2cnc3[nH]cc(C(=O)c4ccccc4F)c3c2)c1 [Compound P-0668]
not listed: Stk6 | Fms | c-Raf-1 | B-Raf | Btk
≤ 10 µM: all other assays above

Nc1cccc(-c2cnc3[nH]cc(C(=O)c4cccc(Cl)c4Cl)c3c2)c1 [Compound P-0679]
≤ 10 µM: Kit | B-Raf V600E | Ret | Kdr | FGFR1 | Flt4 | Flt1

Cc1cc(C(=O)c2c[nH]c3ncc(-c4cccc(C(N)=O)c4)cc23)nn1C [Compound P-0737]
≤ 10 µM: Kit | Ret | Kdr | FGFR1 | Flt4 | Flt1

COc1ccc(C(=O)c2c[nH]c3ncc(-c4cccs4)cc23)cc1 [Compound P-0771]
≤ 10 µM: Kit | B-Raf V600E | Src | Ret | Kdr | FGFR1 | Flt4 | Fms | Flt1

CS(=O)(=O)Nc1cccc(-c2cnc3[nH]cc(C(=O)c4ccc(Cl)cc4)c3c2)c1 [Compound P-0813]
≤ 10 µM: Kit | Ret | Kdr | Flt4
